Like-named read-outs stand apart in the source and are kept apart here.

Results on 2 compounds are retold here after US6511673B1, “Microbicidal composition” (Rohm and Haas Company, priority 2000, dated 2003).

Holding throughout (format): cell-based
The subject of assay [1] is Aspergillus niger (ATCC #16404). The assay is described as follows: MIC synergy assay in TSB, Test Medium Condition 1 (two-fold serial dilution). To be noted: ATCC16404, 168 h. The protocol:
(§1) Synergism was determined by an industrially accepted method described by Kull, F. C.; Eisman, P. C.; Sylwestrowicz, H. D. and Mayer, R. L., in Applied Microbiology 9:538-541 (1961), using the ratio determined by the formula:
(§2) Qa/QA+Qb/QB=Synergy Index (“SI”)
(§3) When the sum of Qa/QA and Qb/QB is greater than one, antagonism is indicated. […] The lower the SI, the greater the synergy shown by that particular mixture. The minimum inhibitory concentration (MIC) of a microbicide is the lowest concentration tested under a specific set of conditions that prevents the growth of added microorganisms.
Synergism of combinations of microbicides was determined using standard MIC assays in trypticase soy broth medium (“TSB” medium). In this method, a range of concentrations was tested by preparing two-fold serial dilutions of the compound tested in 96-well microtiter plates. All liquid media transfers were performed with calibrated single or multichannel digital pipettors. Stock solutions of the microbicides were prepared in appropriate solvents and added to the TSB medium. All subsequent dilutions in plates were made using an automated liquid handling system. Final concentrations of microbicides were obtained by making two-fold serial dilutions in two directions in the microtiter plate. […]

The subject of the next assay is Aspergillus niger. Put plainly: High resolution MIC synergy assay in TSB, Test Medium Condition 2 (ten-fold serial dilution). The protocol: as §1, §2, §3
(§4) Synergism of combinations of microbicides was determined using standard MIC assays in trypticase soy broth medium (“TSB” medium). In this method, a range of concentrations was tested by preparing two-fold serial dilutions of the compound tested in 96-well microtiter plates. All liquid media transfers were performed with calibrated single or multichannel digital pipettors. Stock solutions of the microbicides were prepared in appropriate solvents and added to the TSB medium. All subsequent dilutions in plates were made using an automated liquid handling system. Final concentrations of microbicides were obtained by making two-fold serial dilutions in two directions in the microtiter plate. […] A cell suspension of either Aspergillus niger (A. niger, ATCC #16404) or Candida albicans (C. albicans, ATCC #10231), adjusted to provide 1×10^5 cells per mL in each well, was added to the microtiter plates.
(§5) In a manner similar to that described above for Test Medium Condition 1, the synergism of combinations of microbicides determined in TSB by conducting high resolution MIC assays in the presence of various concentrations of MI. High resolution MICs were determined by adding varying amounts of microbicide to one column of a microtitre plate and doing subsequent […] dilutions using an automated liquid handling system to obtain a series of endpoints ranging from 2 ppm to 10,000 ppm active ingredient.

The test system of a further assay is Candida albicans. The assay is described as above. The protocol: as §1, §2, §3, §4, §5
Where [2] appears, read: 72 h, read-out: QA, MIC of Compound A acting alone.

For `Cn1sccc1=O` [MI, 2-methyl-3-isothiazolone], the MIC (in general, the smallest concentration in the dilution series that meets the test's criterion for growth inhibition) was 250 µg/mL in assay [1] (read-out: QA, MIC of Compound A acting alone); 150 µg/mL in the assay on Aspergillus niger (setting [2]); 100 µg/mL with Candida albicans (setting [2]).

On to `CCCOC(=O)c1ccc(O)cc1` [PP, propyl para-hydroxybenzoate], for which the MIC amounted to 594 µg/mL in assay [1] (A. niger, TSB, two-fold serial dilution, 25° C. one week, read-out: QB, MIC of Compound B acting alone); 200 µg/mL in the assay with Aspergillus niger (A. niger, TSB, high resolution MIC, 25° C. 72 hours, read-out: QB, MIC of Compound B acting alone); 300 µg/mL in the assay with Candida albicans (C. albicans, TSB, high resolution MIC, 25° C. 72 hours, read-out: QB, MIC of Compound B acting alone).
